The subject of one data set is sAPPα. Description: Estimation of mice brain cortical sAPPα levels (ELISA). It counts as in vivo. Particulars: 0.1 and 10 mg/kg s.c., single injection, 60 minutes. As for the experimental part:
1. […] 2. […] 3. […] 4. […] 5. […] Statistical analyses were performed using the Graph Pad Prism (Version 4). […] Values were compared between the different groups by using unpaired t test.

Data set [1] concerns the target T1, recombinant human 5-HT4 receptor (Homo sapiens, UniProt Q13639).
T1 construct: expressed in transfected cells
Description: Determination of EC50 values for 5-HT4 receptor (CHO cells, pCRE-Luc reporter). It counts as cell-based. Particulars: luciferase reporter, 4 hours incubation, read-out: 5-HT4 receptor agonistic binding in-vitro EC50. As to the method:
A stable CHO cell line expressing recombinant human 5-HT4 receptor and pCRE-Luc reporter system was used for cell-based assay. The assay offers a non-radioactive based approach to determine binding of a compound to GPCRs. In this specific assay, the level of intracellular cyclic AMP, which is modulated by activation, or inhibition of the receptor is measured. The recombinant cells harbor luciferase reporter gene under the control of cAMP response element.
The above cells were grown in 96 well clear bottom white plates in Hams F12 medium containing 10% fetal bovine serum (FBS). Prior to the addition of compounds or standard agonist, cells were serum starved overnight. Increasing concentrations of test compounds were added in OptiMEM medium to the cells. The incubation was continued at 37° C. in CO2 incubator for 4 hours. Medium was removed and cells were washed with phosphate buffered saline. The cells were lysed and luciferase activity was measured in a Luminometer. Luminescence units were plotted against the compound concentrations using Graphpad software. EC50 values of the compounds were defined as the concentration required in stimulating the luciferase activity by 50%.

A further data set concerns Male Wistar rats. The experiment in a line: Object recognition task model. Format: in vivo. The note with it: rat, p.o. As for the experimental part:
The cognition enhancing properties of compounds of this invention were estimated by using this model.
Male Wistar rats (230-280 grams) were used as experimental animals. Four animals were housed in each cage. Animals were kept on 20% food deprivation before one day and given water ad libitum throughout the experiment and maintained on a 12 hours light/dark cycle. Also the rats were habituated to individual arenas for 1 hour in the absence of any objects.
One group of 12 rats received vehicle (1 mL/Kg) orally and another set of animals received compound of the formula (I) either orally or i.p., before one hour of the familiar (T1) and choice trial (T2).
The experiment was carried out in a 50×50×50 cm open field made up of acrylic. In the familiarization phase, (T1), the rats were placed individually in the open field for 3 minutes, in which two identical objects (plastic bottles, 12.5 cm height×5.5 cm diameter) covered in yellow masking tape alone (a1 and a2) were positioned in two adjacent corners, 10 cms from the walls. After 24 hours of the (T1) trial for long-term memory test, the same rats were placed in the same arena as they were placed in T1 trial. Choice phase (T2) rats were allowed to explore the open field for 3 minutes in presence of one familiar object (a3) and one novel object (b) (Amber color glass bottle, 12 cm high and 5 cm in diameter). Familiar objects presented similar textures, colors and sizes. During the T1 and T2 trial, explorations of each object (defined as sniffing, licking, chewing or having moving vibrissae whilst directing the nose towards the object at a distance of less than 1 cm) were recorded separately by stopwatch. Sitting on an object was not regarded as exploratory activity, however, it was rarely observed.
T1 is the total time spent exploring the familiar objects (a1+a2).
T2 is the total time spent exploring the familiar object and novel object (a3+b).
The object recognition test was performed as described by Behaviour Brain Research, 31 (1988), 47-59.

Data set [2] in a line: Rodent pharmacokinetic study. Particulars: male, Wistar, plasma, rat; for bioavailability: 3 mg/kg oral vs 1 mg/kg intravenous. It counts as in vivo, Male wistar rats. As for the experimental part: Male wistar rats (225=25 grams) were used as experimental animals. Three to five animals were housed in each cage. Two days prior to dosing day, male wistar rats (225-250 grams) were anesthetized with isoflurane for surgical placement of jugular vein catheter. Animals were fasted over night before oral dosing (p.o) and food pellets were allowed 2 hours post dosing, whereas during intravenous dosing food and water were provided as ad libitum. Three rats were dosed with compounds of formula (I) (3 mg/kg) orally and intravenously (1 mg/kg).
At each time point blood was collected through jugular vein and immediately replenish with an equivalent volume of normal saline from freely moving rats. Collected blood was transferred into a labeled eppendr off containing 10 μL of heparin as anticoagulant. Typically blood samples were collected as following time points: Pre dose, 0.08 (only i.v.), 0.25, 0.5, 1, 2, 4, 6, 8, and 24 hours post
dose (n=3). Blood was centrifuged at 4000 rpm for 10 minutes. Plasma was prepared and stored frozen at −20° C. until analysis. The concentrations of the compounds of formula (I) were quantified in plasma by qualified LC-MS/MS method using suitable extraction technique. The compounds of formula (I) were quantified in the calibration range around 2-2000 ng/mL in plasma. Study samples were analyzed using calibration samples in the batch and quality control samples spread across the batch.
Pharmacokinetic parameters Cmax, Tmax, AUCt, T1/2 and Bioavailability were calculated by non-compartmental model using standard non-compartmental model by using WinNonLin 5.0.1 or Phoenix WinNonlin 6.2 version Software package.

Data set [3] in a line: Rodent brain penetration study. It counts as in vivo, Male Wistar rats. Particulars: male, Wistar, brain and plasma; rat, 3 mg/kg oral (gavage); read-out: Single dose Brain Penetration (Cb/Cp). As for the experimental part:
Male Wistar rats (225±25 grams) were used as experimental animals. Three animals were housed in each cage. Animals were given water and food ad libitum throughout the experiment and maintained on a 12 hours light/dark cycle.
Brain penetration was determined in discrete manner in rats. One day prior to dosing day, male wistar rats (225-250 grams) were acclimatized. After acclimatization the rats were grouped according to their weight. In each group, 3 animals were kept in individual cage and allowed free access to food and water. At each time point (0.50, 1, and 2 hours) n=3 animals were used.
The compounds of formula (I) were suitably preformulated and administered orally at (free base equivalent) 3 mg/kg. Blood samples were removed via, cardiac puncture by using isoflurane anesthesia. The animals were sacrificed to collect brain tissue. Plasma was separated and brain samples were homogenized and stored frozen at −20° C. until analysis. The concentrations of the compounds of formula (I) in plasma and brain were determined using LC-MS/MS method.
The compounds of formula (I) were quantified in plasma and brain homogenate by qualified LC-MS/MS method using suitable extraction technique. The compounds of formula (I) were quantified in the calibration range of 1-500 ng/mL in plasma and brain homogenate. Study samples were analyzed using calibration samples in the batch and quality control samples spread across the batch. Extent of brain-plasma ratio was calculated (Cb/Cp).

Data set [4] relates to Scopolamine Induced amnesia. The experiment in a line: Radial arm maze. It counts as in vivo, rats. The note with it: p.o. From the text:
The cognition enhancing properties of compounds of formula (I) of this invention were estimated by using this model. Radial arm maze consists of a central hub of 45 cm diameter. Each arm was of dimension 42.5×15×24 cm. The maze was elevated to a height of 1 m above the ground. The animals were placed on a restricted diet until they reached approximately 85% of their free feeding weight. During this diet restriction period animals were habituated to the novel feed (pellets). Once the rats reached approximately 85% of their free feeding weight rats were habituated to the maze on the 1^St and 2nd day. […] Animals were randomized on day 2. On the subsequent days the treatment was given as per the allotment. Each animal was introduced into the maze individually for a period of 10 minutes. The arms were baited only once and the animal had to learn the rule that repeated arm entries would not be rewarded. The trial ended once the rat had visited 16 arms or 10 minutes were over or all the pellets were eaten. The arm entries were recorded using the software. Once the trial was over the rat was removed and the maze was cleaned using soap water.

Counter-ions that a name gives are not always drawn.

T1 sequence (Q13639 whole entry): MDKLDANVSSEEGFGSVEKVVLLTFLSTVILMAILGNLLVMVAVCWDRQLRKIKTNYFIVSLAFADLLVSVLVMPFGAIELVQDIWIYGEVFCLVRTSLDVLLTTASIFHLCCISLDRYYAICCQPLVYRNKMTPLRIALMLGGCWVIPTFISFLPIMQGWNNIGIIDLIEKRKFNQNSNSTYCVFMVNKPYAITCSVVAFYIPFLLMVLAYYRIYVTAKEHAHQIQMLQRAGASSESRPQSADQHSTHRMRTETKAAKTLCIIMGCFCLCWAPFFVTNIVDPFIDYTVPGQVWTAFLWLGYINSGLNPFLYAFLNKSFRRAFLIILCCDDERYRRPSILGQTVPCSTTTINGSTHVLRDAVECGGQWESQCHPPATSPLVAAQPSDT

Turning to `COCCCN1CC2C(CNC(=O)c3cccc4cn(C(C)C)nc34)C2C1.O=C(O)C(=O)O` (centres unmarked) [Example 3, N—[N-(3-methoxypropyl)-3-azabicyclo[3.1.0]hexane-6-ylmethyl]-2-isopropyl-2H-indazole-7-carboxamide oxalate], the “increase of mice brain cortical sAPPα levels in comparison with control group” value in the data set on sAPPα is recorded as 25-30%. In addition, the concentration for a half-maximal effect (EC50) in data set [1] lay in the range of 1.1 to 5 nM. In the data set with Male Wistar rats (1 mg/kg), the “Exploration time mean ± S.E.M, Familiar object” value was 5.67 ± 1.15 s; the “Exploration time mean ± S.E.M, Novel object” value was determined as 14.26 ± 1.64 s; the Inference result was “Active”. Also, in data set [2] (1 mg/kg intravenous (bolus)), the AUC(0-t) came to 397 ± 28 ng·h/mL and the half-life is 54 ± 6 min. In data set [2] (3 mg/kg oral (gavage)), the AUC(0-t) is 560 ± 117 ng·h/mL, the Cmax amounted to 467 ± 37 ng/mL, the Tmax was determined as 19.8 ± 8.4 min and the half-life is 48 ± 6 min. The bioavailability in data set [2] worked out at 47 ± 10%. Besides, the Kp in data set [3] came to 0.96 ± 0.12. Moreover, the “Reversal of Scopolamine Induced amnesia - Effective dose range” value (“Reversal of Scopolamine Induced amnesia” below) in data set [4] is on record as 3 mg/kg, p.o.

Take `CC(C)n1cc2cccc(C(=O)NCC3CCN(CC(C)(C)O)CC3)c2n1.O=C(O)C(O)C(O)C(=O)O` [Example 32, N—[N-(2-hydroxy-2-methylpropyl)piperidin-4-ylmethyl]-2-isopropyl-2H-indazole-7-carboxamide L(+) Tartarate]: the EC50 in data set [1] was at most 1 nM. Also, in the data set on Male Wistar rats (0.3 mg/kg), the “Exploration time mean ± S.E.M, Familiar object” value was 7.79 ± 1.27 s; the “Exploration time mean ± S.E.M, Novel object” value was 17.98 ± 2.41 s; the Inference entry is “Active”. In data set [2] (1 mg/kg intravenous (bolus)), this compound showed an area under the curve AUC(0-t) of 281 ± 6 ng·h/mL and a half-life of 72 ± 6 min. In addition, in data set [2] (3 mg/kg oral (gavage)), the exposure AUC(0-t) is 155 ± 3 ng·h/mL, the concentration peaked (Cmax) at 110 ± 8 ng/mL, the time of peak concentration (Tmax) is 30 min and the half-life was 48 min. Moreover, the bioavailability in data set [2] amounted to 18%. Further, the Kp in data set [3] worked out at 0.52 ± 0.08. Further, the “Reversal of Scopolamine Induced amnesia” value in data set [4] was 0.3 mg/kg, p.o.

As to `CCn1cc2cccc(C(=O)NCC3CCN(CC4CCOCC4)CC3)c2n1.O=C(O)/C=C/C(=O)O` [Example 2, N—[(N-tetrahydropyran-4-ylmethyl)piperidin-4-ylmethyl]-2-ethyl-2H-indazole-7-carboxamide fumarate], in data set [1], the EC50 was at most 1 nM. Also, in the data set with Male Wistar rats (0.3 mg/kg), the “Exploration time mean ± S.E.M, Familiar object” value came out at 7.21 ± 1.99 s; the “Exploration time mean ± S.E.M, Novel object” value turned out to be 13.10 ± 1.78 s; the Inference entry is “Active”. In data set [2] (1 mg/kg intravenous (bolus)), the AUC(0-t) came to 145 ± 18 ng·h/mL and the half-life was 102 ± 30 min. Besides, in data set [2] (3 mg/kg oral (gavage)), the area under the curve AUC(0-t) stood at 190 ± 43 ng·h/mL, the concentration peaked (Cmax) at 223 ± 118 ng/mL, the Tmax is 19.8 ± 8.4 min and the half-life was 66 ± 36 min. In data set [2], this compound came in with a bioavailability of 44 ± 10%. For the same compound, the Kp in data set [3] was 1 ± 0.15. Besides, the “Reversal of Scopolamine Induced amnesia” value in data set [4] is given as 0.3 mg/kg, p.o.

Consider `CC(C)n1cc2cccc(C(=O)NCC3CCN(CC4CCOCC4)CC3)c2n1` [Example 1, N—[(N-tetrahydropyran-4-ylmethyl)piperidin-4-ylmethyl]-2-isopropyl-2H-indazole-7-carboxamide fumarate], for which the EC50 in data set [1] was at most 1 nM. Moreover, in the data set with Male Wistar rats (1 mg/kg), the “Exploration time mean ± S.E.M, Familiar object” value is 8.51 ± 1.35 s; the “Exploration time mean ± S.E.M, Novel object” value was 15.51 ± 1.37 s; the Inference entry is given as “Active”. In data set [2] (1 mg/kg intravenous (bolus)), this compound had an area under the curve AUC(0-t) of 287 ± 40 ng·h/mL and a half-life of 66 ± 6 min. For the same compound, in data set [2] (3 mg/kg oral (gavage)), the area under the curve AUC(0-t) amounted to 212 ± 46 ng·h/mL, the maximum concentration (Cmax) came to 107 ± 22 ng/mL, the time of peak concentration (Tmax) was determined as 25.2 ± 8.4 min and the half-life was 90 min. Besides, in data set [2], the bioavailability was 25 ± 5%. Further, the Kp in data set [3] is 0.98 ± 0.34.

With `CC(C)N1CCC(CNC(=O)c2cccc3cn(C(C)C)nc23)CC1` [Example 13, N—(N-isopropylpiperidin-4-ylmethyl)-2-isopropyl-2H-indazole-7-carboxamide fumarate], the EC50 in data set [1] is at most 1 nM.

The record behind these values is US9951045B2, “Indazole compounds as 5-HT4 receptor agonists” (SUVEN LIFE SCIENCES LIMITED, priority 2013, dated 2018).
